Experimental data: the supplement of paper PMC10307832

Key:
Assay in all cases: relative viability (nuclei count vs DMSO), 5 days (fraction); higher = more cells survive
CUDC-101 + Tozasertib = compound: C#Cc1cccc(Nc2ncnc3cc(OC)c(OCCCCCCC(=O)NO)cc23)c1 [CUDC-101] + Cc1cc(Nc2cc(N3CCN(C)CC3)nc(Sc3ccc(NC(=O)C4CC4)cc3)n2)n[nH]1 [Tozasertib] (partner 0.1 µM)
Outline: (§1)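 Lung cancer cell lines in 1536-well plates were dosed by pin tool the day after seeding, either with one drug alone or with a fixed anchor-drug dose plus five library-drug doses (not always all listed) in √10 steps. After 5 days, cells were fixed and their nuclei stained in one step (final 0.05% Triton X-100, 1% formaldehyde, 1 ug/ml Hoechst), then counted on 4× images. Relative viability is the nuclei count in treated wells divided by that in vehicle wells. Values are medians of duplicate plates.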

[1] = compound: C1=CC=C2C(=C1)N=C(S2)C(C#N)C3=NC(=NC=C3)NCCC4=CN=CC=C4 + CC(=O)Nc1cccc(-n2c(=O)n(C3CC3)c(=O)c3c(Nc4ccc(I)cc4F)n(C)c(=O)c(C)c32)c1 [Trametinib] (partner 0.02 µM)
Outline: as §1

[2] = compound: C1=CC=C2C(=C1)N=C(S2)C(C#N)C3=NC(=NC=C3)NCCC4=CN=CC=C4 + COc1cccc2cc(-c3nc([C@H]4CC[C@H](C(=O)O)CC4)n4ncnc(N)c34)[nH]c12 [OSI-027] (partner 0.5 µM)
Outline: as §1

[3] = compound: C1=CC=C2C(=C1)N=C(S2)C(C#N)C3=NC(=NC=C3)NCCC4=CN=CC=C4 + O=C(CCCCCCC(=O)Nc1ccccc1)NO [Vorinostat] (partner 1 µM)
Outline: as §1

Row | Cell Line | relative viability (CUDC-101 + Tozasertib; first compound 0.01 µM) | relative viability (CUDC-101 + Tozasertib; first compound 0.03162 µM) | relative viability (CUDC-101 + Tozasertib; first compound 0.1 µM) | relative viability (CUDC-101 + Tozasertib; first compound 0.3162 µM) | relative viability (CUDC-101 + Tozasertib; first compound 1 µM) | relative viability ([1]; first compound 0.005 µM) | relative viability ([1]; first compound 0.01581 µM) | relative viability ([1]; first compound 0.05 µM) | relative viability ([1]; first compound 0.1581 µM) | relative viability ([1]; first compound 0.5 µM) | relative viability ([2]; first compound 0.005 µM) | relative viability ([2]; first compound 0.01581 µM) | relative viability ([2]; first compound 0.05 µM) | relative viability ([2]; first compound 0.1581 µM) | relative viability ([2]; first compound 0.5 µM) | relative viability ([3]; first compound 0.005 µM) | relative viability ([3]; first compound 0.01581 µM) | relative viability ([3]; first compound 0.05 µM) | relative viability ([3]; first compound 0.1581 µM) | relative viability ([3]; first compound 0.5 µM)
1 | HCC-827 | 0.381 | 0.236 | 0.143 | 0.111 | 0.101 | 0.503 | 0.534 | 0.497 | 0.486 | 0.497 | 0.617 | 1.11 | 0.854 | 0.978 | 0.783 | 0.675 | 0.931 | 0.838 | 1.07 | 0.922
2 | NCI-H2170 | 0.632 | 0.698 | 0.753 | 0.62 | 0.345 | 0.623 | 0.924 | 0.884 | 1.04 | 0.655 | 0.687 | 0.653 | 0.718 | 0.698 | 0.706 | 0.756 | 0.86 | 0.777 | 0.887 | 0.877
3 | NCI-H1395 | 0.809 | 0.717 | 0.747 | 0.744 | 0.627 | 0.983 |  | 0.949 | 1.2 | 0.979 | 0.606 | 0.515 | 0.569 | 0.843 | 0.658 | 0.556 |  | 0.707 | 0.788 | 0.611
4 | NCI-H2009 | 0.8 | 0.695 | 0.778 | 0.801 | 0.639 | 0.26 | 0.264 | 0.26 | 0.314 | 0.334 | 0.649 | 0.547 | 0.564 | 0.726 | 0.603 | 0.727 | 0.677 | 0.729 | 0.735 | 0.738
5 | NCI-H1437 | 0.41 | 0.332 | 0.41 | 0.429 | 0.361 | 0.503 | 0.55 | 0.52 | 0.539 | 0.427 | 0.855 | 0.817 | 0.93 | 0.917 | 0.723 | 0.896 | 0.871 | 0.813 | 0.824 | 0.755
6 | NCI-H2087 | 0.292 | 0.243 | 0.233 | 0.195 | 0.223 | 0.222 | 0.201 | 0.203 | 0.212 | 0.186 | 0.557 | 0.629 | 0.495 | 0.548 | 0.483 | 0.338 | 0.666 | 0.353 | 1 | 0.435
7 | LCLC-103H | 0.54 | 0.494 | 0.485 | 0.418 | 0.322 | 0.648 | 0.735 | 0.692 | 0.695 | 0.659 | 0.387 | 0.521 | 0.41 | 0.505 | 0.397 | 0.712 | 0.664 | 0.718 | 0.878 | 0.76
8 | PC-14 | 0.656 | 0.544 | 0.391 | 0.528 | 0.115 | 0.411 | 0.933 | 0.633 | 0.948 | 0.809 | 0.606 | 0.923 | 0.669 | 1.22 | 0.729 | 0.642 | 0.769 | 0.675 | 0.753 | 0.576
9 | H3255 | 0.649 | 0.591 |  | 0.549 | 0.135 | 0.533 | 0.577 | 0.62 | 0.697 | 0.726 | 0.732 | 0.596 | 0.608 | 0.581 | 0.702 | 0.792 | 0.729 | 0.745 | 0.988 | 0.84
10 | NCI-H2342 | 0.592 | 0.55 | 0.474 | 0.437 | 0.453 | 0.733 | 0.89 | 0.867 | 0.798 | 0.844 | 0.532 | 0.64 | 0.569 | 0.671 | 0.578 | 0.621 | 0.811 | 0.737 | 0.776 | 0.756
11 | NCI-H460 | 0.379 | 0.393 | 0.396 | 0.629 | 0.373 |  | 0.137 | 0.131 | 0.175 | 0.141 | 0.281 | 0.735 | 0.67 | 0.727 | 0.238 |  | 0.651 | 0.721 | 0.782 | 0.354
12 | HOP-62 | 0.343 | 0.379 | 0.399 | 0.405 | 0.321 | 0.359 | 0.394 | 0.394 | 0.37 | 0.366 | 0.669 | 0.828 | 0.762 | 0.989 | 0.793 | 0.49 | 0.626 | 0.453 | 0.685 | 0.642
13 | HCC-78 | 0.401 | 0.405 | 0.36 | 0.316 | 0.184 | 1.01 | 0.782 | 0.924 | 0.693 | 0.729 | 0.367 | 0.35 | 0.332 | 0.438 | 0.36 | 0.485 | 0.391 | 0.509 | 0.524 | 0.42
14 | NCI-H2085 | 0.708 | 0.786 | 0.882 | 0.726 | 0.705 | 0.528 | 0.652 | 0.521 | 0.576 | 0.481 | 0.675 | 0.738 | 0.57 | 0.931 | 0.663 | 0.726 | 0.737 | 0.781 | 0.826 | 0.903
15 | COR-L23 | 0.245 | 0.202 | 0.208 | 0.218 | 0.159 | 0.582 | 0.547 | 0.597 | 0.717 | 0.608 | 0.369 | 0.839 | 0.716 | 0.985 | 0.511 | 0.377 | 0.354 | 0.464 | 0.421 | 0.36
